Experimental data: article PMC3293077, “Pharmacokinetics of high-dose oral thiamine hydrochloride in healthy subjects” (BMC Clinical Pharmacology, 2012)
Counter-ions that a name gives are not always drawn. Like-named read-outs stand apart in the source and are kept apart here.

How the values were obtained:
[1] = mean ± SD; for AUC0-10 hr: baseline-corrected
Protocol: Subjects participated in a randomized, double-blind, single-dose, 4-way crossover study with a minimum of 1 week elapsing between trials. The 4 treatment groups were:
Subjects fasted overnight except for water. […] After 1 hour they were administered the study medication. Additional blood specimens were obtained immediately prior to the study medication and at 0.5, 1, 1.5, 2, 3, 4, 5, 6, 8, and 10 hours after taking the study medication. Subjects received a standardized lunch after the 6-hour blood draw. All blood specimens were drawn in duplicate (for plasma and whole blood assays) in 3 mL lavender-top vacutainers® containing K2EDTA. They were immediately placed in an ice bath and protected from the light. One vacutainer® of each pair was centrifuged at 3000 RPM for 20 min at 4°C to separate the plasma. The plasma sample and whole blood sample were then frozen at -70°C.
Thiamine tablets each containing 100 mg of thiamine hydrochloride were used (Amneal Pharmaceuticals). These were placed intact into opaque capsules. Identical capsules containing sucrose tablets were used as placebo such that the same number of capsules were used for each trial.
Quest Diagnostics analyzed all specimens for total thiamine using HPLC [4]. At Quest Diagnostics, plasma was deproteinized and then incubated with acid phosphatase to convert thiamine phosphate esters to free thiamine. The free thiamine was then oxidized to thiochrome by the addition of alkaline potassium ferricyanide. Depending on the age of the column and the temperature of the room, thiochrome retention time varied from 2.5 to 3.0 min. The mixture was injected to a Supelco (Bellefonte, PA, USA) high-performance liquid chromatographic column (7.5 cm^3 4.6 mm, particle size […]) connected to a high-performance liquid chromatographic system using a Hitachi (Pleasant, CA, USA) pump, autosampler, and fluorescent detector (excitation wavelength 365 nm, emission wavelength 440 nm). The mobile phase was 75 mmol/L of potassium phosphate at pH 7.5 with 25% methanol. The flow rate was set at 1.0 mL/min. Through this process, the thiochrome was then separated from other interfering substances and then measured fluorometrically. The amount of total thiamine in an unknown sample is proportional to the amount of thiochrome formed. The limit of quantification is 7 nmol/L. The assay range is 7 to 450 nmol/L. Samples with values above this range were diluted. The coefficient of variation for both the plasma and whole blood thiamine assays was calculated from the data collected in this study.
The thiamine levels were corrected by subtracting the baseline value. The baseline value was calculated as the average of the -1-hour and 0-hour values. Net systemic exposure to thiamine in each subject in each trial was quantitated using the area under the whole blood or plasma concentration curve from time zero through 10 hours after dosage (AUC0-10 hr). This was calculated using the cubic splines method. The overall effect of treatment condition (thiamine dose) on AUC0-10 hr in blood and plasma was tested using analysis of variance (ANOVA) for repeated measures. This was followed by the Student-Newman-Keuls procedure, nonparametric form, for evaluating all pairwise comparisons of the mean AUC0-10 hr values for the dosage groups. The peak thiamine concentration (Cmax) and the time to peak thiamine concentration (Tmax) were also calculated. Finally, half-life (t1\2) values were calculated where the terminal phase appeared log-linear.

[2] = single oral doses 100, 500, 1500 mg, healthy subjects; study not designed to detect adverse events
Source text: Subjects participated in a randomized, double-blind, single-dose, 4-way crossover study with a minimum of 1 week elapsing between trials.

[3] = cited from earlier work
[4] = plasma, 100 mg oral single dose
[5] = plasma, 500 mg oral single dose
[6] = plasma, 1500 mg oral single dose
[7] = whole blood, 100 mg oral single dose
[8] = whole blood, 500 mg oral single dose
[9] = whole blood, 1500 mg oral single dose

## Cc1ncc(C[n+]2csc(CCO)c2C)c(N)n1 [thiamine hydrochloride]
[1]; [4]
  AUC0-10 hr: 0.177 ± 0.062 µM·h
  Cmax: 39 ± 13 nM
[1]; [5]
  AUC0-10 hr: 0.612 ± 0.257 µM·h
  Cmax: 113 ± 42 nM
[1]; [6]
  AUC0-10 hr: 2.059 ± 1.415 µM·h
  Cmax: 397 ± 250 nM
[1]; [7]
  AUC0-10 hr: 0.214 ± 0.069 µM·h
  Cmax: 40 ± 11 nM
[1]; [8]
  AUC0-10 hr: 0.623 ± 0.178 µM·h
  Cmax: 95 ± 27 nM
[1]; [9]
  AUC0-10 hr: 2.046 ± 1.222 µM·h
  Cmax: 385 ± 188 nM
[2]
  side effects: no side effects were reported
[3]; 1000 mg oral three times a day for 2 to 12 months, Alzheimer's disease
  adverse effects: without any reports of adverse effects
[3]; titrated up to 8000 mg per day over 1 year, in 2 subjects at 7000 and 7500 mg per day
  side effects: nausea and indigestion
